Measurements published in US6602861B1, “Acylated phospholipid drugs” (Research Corporation Technologies, Inc., priority 1992, dated 2003).
Entries after “also recorded” stand apart in the source; their conditions may differ. Read-outs that look alike come from different tables or passages of the source.

Assays:
HIV [1] = assay: Anti-HIV activity of D-AC2 and PE analogs compared with 12MO (FIG. 7); type: cell-based
in vitro = assay: in vitro
Procedure: Stability of Anti-HIV Phlospholipids in Fresh Blood at 38° C.
Drug development using phospholipids will require that the parent compound is stable in blood. […] L-PE1 and L-PE2 are identical except that the methylene group in the 13 position of the sn-2 alkyl chain has been replaced with an oxygen atom.

HIV-1 (3B) = assay: HIV-1 p24 antigen capture assay in infected monocyte-derived macrophages; type: cell-based; conditions: for dose response behaviour in MDM: 1-100 μM; for inhibition of HIV p24 antigen production in MDM: 50 μM
HIV [2] = assay: microbe, parasite or virus in culture
Procedure: (§1) Briefly, the assay was performed as follows. On Day 0, MT4 cells were infected with HIV. On Day 3, mix 10^3-10^4 infected cells (resuspend cells at 10^4-10^5 cells/ml so that the desired number of cells is in a volume of 100 μl) with 10^5 SupT1 cells (suspended at 10^6/ml, so that there are 10^5 cells per 100 μl) in a 96 well plate. Infected cells are titered to find the optimum number of syncytial cells to count. Cells are counted either manually or by flow cytometry. […] The time intervals for other cell lines may vary. To assay drugs that block syncytia formation, 50 μl SupT1, 50 μl infected (MT4) cells (total cell number is the same), and 100 μl of drug are present.

[3] = system: HIV (S5G7, subclone of HTLVIIIB); assay: microbe, parasite or virus in culture; type: cell-based; conditions: 7 days after infection, read-out: IC50 50% Reduction in Reverse Transcriptase Activity PBMC
MT4 cells = assay: Drug cytotoxicity MTT assay (TC50), uninfected MT4 cells; type: cell-based
Procedure: (§2) Three assays for anti-HIV activity were used and the IC50 was calculated from these assays; (i) syncytial cell assays, (ii) reverse transcriptase assays, and (iii) direct […]. In addition, direct drug cytotoxicity was tested ‘as a control’ in each assay which merely means that the drug was dosed to the cells without virus present. This control assured that only the antiviral effect of the compound is measured. However, this drug cytotoxicity was not used to calculate the TC50 because the TC50 required doses of drug that were higher than the effective concentrations. Thus the TC50 is the dose of drug that kills 50% of the cells without virus present and was measured in MTT assays using the same cells type to evaluate antiviral activity. The therapeutic index was calculated from TC50/IC50. The ability of anti-HIV phospholipids to inhibit direct cytopathic effect caused by HIV infection was also measured.
(§3) MT4 cells were plated in 96-well microtiter plates at 8×10^4 cells/well in a volume of 90 μl. [Note: To compare TC50 to IC50, the same cell type used in antiviral assays was tested in the MTT assay; for these experiments, MT4 cells were used to evaluate the syncytial cell assays and PBMC's were used to compare the PBMC/RT assay]. To this was added one minimum cytotoxic dose of HIV in a volume of 10 μl. The test drug was added in 100 μl aliquots at several concentrations. A control plate using uninfected MT4 cells was set up simultaneously to assess cytotoxicity due to the drug alone. The plates were then incubated for five days at 37° C. Then the media was aspirated from the wells and replaced with 100 μl MTT solution (3-(4,5-dimethylthiazol-2-yl)-2,5-di-phenyltetrazolium bromide, 1 mg/ml in PBS) and incubated for 4 hours at 37° C. The plates were then centrifuged to pellet the cells, and the supernatants were removed (centrifugation can be omitted if the supernatants are removed carefully). […] Plates were read on an ELISA reader at Abs 570 nm. […]

PBMC = assay: Drug cytotoxicity MTT assay (TC50), PBMC; type: cell-based; conditions: PBMC cells, absence of HIV
Procedure: as §2
(§4) MT4 cells were plated in 96-well microtiter plates at 8×10^4 cells/well in a volume of 90 μl. [Note: To compare TC50 to IC50, the same cell type used in antiviral assays was tested in the MTT assay; for these experiments, MT4 cells were used to evaluate the syncytial cell assays and PBMC's were used to compare the PBMC/RT assay]. To this was added one minimum cytotoxic dose of HIV in a volume of 10 μl. […] Plates were read on an ELISA reader at Abs 570 nm. […]

HIV infected MT4 cells [4] = assay: Synergism with AZT in syncytial cell assays (FIG. 6); type: cell-based; conditions: for increase in activity (shift in dose response curve) when AZT was added: plus 0.5 nM AZT
Procedure: as §1

[5] = Liposome formation in aqueous buffers; type: physicochemical
Source text: The increased activity of L-AC1 in MDM compared to CEM cells may be due to the phagocytosis of L-AC1 liposomes in MDM.

[6] = target: bee venom phospholipase A2 (PLA2) (Apis mellifera, UniProt P00630)
HIV-1 = conditions: CEM cells
Source text: The S5G7 strain of HIV was used. S5G7 is a subclone of HTLVIIIB grown in H9 cells, and highly virulent regarding T cell infectivity, but less so for monocytes; this strain was obtained from Abbott Laboratories.
This assay measures the ability of a drug to inhibit the HIV virus from killing cells. CEM cells were used for this assay.
The T-cell HIV inhibition assay method of acutely infected cells is an automated tetrazolium based calorimetric assay adapted from Novak, et al., Aids Res. and Human Retroviruses, 6, 973 (1990). Assays were performed in 96-well tissue culture plates. CEM cells were grown in RPMI-1640 medium (Gibco) supplemented with 10% fetal calf serum and were then treated with polybrene (2 μg/ml). A 80 μl volume of medium containing 1×10^4 cells was dispensed into each well of the tissue culture plate. To each well was added a 100 μl volume of test compound dissolved in tissue culture medium (or medium without test compound as a control) to achieve the desired final concentration and the cells were incubated at 37° C. for 1 hour. A frozen culture of HIV-1 was diluted in culture medium to a concentration of 5×10^6 TCID50 per ml (TCID50=the dose of virus that infects 50% of cells in tissue culture), and a 20 μl volume of the virus sample (containing 1000 TCID50 of virus) was added to wells containing test compound and to wells containing only medium (infected control cells). […] Several wells received culture medium without virus (uninfected control cells). Azidothymidine (AZT) was tested as a positive drug control.
Following the addition of virus, cells were incubated at 37° C. in a humidified, 5% CO2 atmosphere for 7 days. Additional aliquots of test compounds were added on days 2 and 5. On day 7 post-infection, the cells in each well were resuspended and a 100 μl sample of each cell suspension was removed for assay. […] The absorbance of each sample was determined at 590 nm using a Molecular Devices microplate reader. The % reduction of the virus induced cytopathic effect (CPE) by the test compounds was calculated from the equation.

CEM cells [7] = system: CEM cells
[8] = Drug cytotoxicity MTT assay (TC50), uninfected MT4 cells; type: cell-based; conditions: human, uninfected MT4 cells; MT4 cells, absence of HIV
Procedure: as §2, §3

[9] = Drug cytotoxicity MTT assay (TC50), PBMC; type: cell-based; conditions: human, uninfected; PBMC cells, absence of HIV
Procedure: as §2, §4

HIV infected MT4 cells [10] = conditions: literature report; cited from earlier work
[11] = delivered to cells as a free fatty acid; cited from earlier work
[12] = system: monocyte-derived macrophages (MDM); assay: Toxicity seen in the macrophage p24 experiment; conditions: 100 μM
CEM cells [13] = assay: Direct cytotoxicity of compounds to CEM cells without virus; conditions: for direct cytotoxicity to CEM cells: no virus

Chain of bee venom phospholipase A2 (PLA2) (P00630 34-167 limits assumed): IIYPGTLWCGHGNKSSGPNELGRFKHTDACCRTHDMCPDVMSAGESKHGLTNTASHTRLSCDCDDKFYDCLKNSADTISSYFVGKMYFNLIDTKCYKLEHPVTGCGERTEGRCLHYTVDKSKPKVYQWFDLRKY

COCCCCCCCCCCCC(=O)OC[C@H](COP(=O)(O)OCCN)OC(=O)CCCCCCCCCCCOC [L-PE2, 1,2 di-(12-Methoxydodecanoyl)-sn-glycero-3-phosphoethanolamine]
anti-HIV activity relative to 12MO (HIV [1]): > 100 fold | IC50 (HIV [1]; Human immunodeficiency virus 1): 0.02 µM | half-life (in vitro): 9.36 h

1,2-(di-12-methoxydodecanoyl)-sn-3-phosphatidylcholine [L-AC2]
inhibition of HIV infection in macrophages (p24 antigen) (HIV-1 (3B); 1 μM, 15 day acute infection): completely suppressed | inhibition of HIV infection in macrophages (p24 antigen) (HIV-1 (3B); 1 μM, 15 day acute infection, listed as AC2): completely effective | dose response behaviour in MDM (HIV-1 (3B)): No dose response was observed | inhibition of HIV infection in macrophages (p24 antigen) (HIV-1 (3B); all doses tested (1-100 μM)): completely inhibited | potency in HIV infected MDM compared with 12MO (HIV-1 (3B); comparison in words): significantly more potent | IC50 (HIV [2]; read-out: IC50 50% Reduction in syncytial cell formation MT4 cells, HIV infected MT4 cells, SupT1 target cells): 1 µM | IC50 (HIV [2]; read-out: IC50 50% Reduction in syncytial cell formation MT4 cells, HIV infected MT4 cells, SupT1 target cells, listed as AC2): ~1 µM | IC50 ([3]; PBMC, listed as AC2): ~4 µM | IC50 ([3]; PBMC): 6 µM | CC50 (MT4 cells; MT4 cells, absence of HIV): 280 µM | TC50 in the presence of AZT (MT4 cells; uninfected MT4 cells, AZT 50 nM to 500 nM): unchanged | CC50 (PBMC): 220 µM | activity alone in syncytial cell assay (HIV infected MT4 cells [4]; 5 nM): inactive | inhibition of syncytia formation (HIV infected MT4 cells [4]; 5 nM L-AC2 plus 0.5 nM AZT, HIV infected MT4 cells): ~50% | activity alone in syncytial cell assay (HIV infected MT4 cells [4]; 10 nM): inactive | synergistic effects with AZT (HIV infected MT4 cells [4]; compared with 12MO and AZT, FIG. 6): increased synergistic effects | increase in activity (shift in dose response curve) when AZT was added (HIV infected MT4 cells [4]): approximately 100 fold | IC50 (HIV [1]): ~1 µM | halflife in fresh blood (in vitro): 4.56 h | liposome formation [5]: formed liposomes | hydrolysis by PLA2 [6]: quantitatively hydrolyzed

1-(12-methoxydodecanoyl)-sn-3-glycerophosphatidylcholine [lysoAC2]
IC50 (HIV-1; read-out: IC50, reduction of virus induced cytopathic effect (CPE), 7 days, FIG. 1): ~100 µM | toxicity compared with the other analogs (CEM cells [7]): significantly less toxic

COCCCCCCCCCCCC(=O)O [12MO, 12-methoxydodecanoic acid, reference compound]
inhibition of HIV p24 antigen production in MDM (HIV-1 (3B)): little activity | activity in MDM (HIV-1 (3B); 100 μM): ~100% | inhibition of HIV infection in macrophages (p24 antigen) (HIV-1 (3B); 100 μM): completely suppressed; also recorded: suppressed HIV replication | dose response behaviour in MDM (HIV-1 (3B)): very steep dose response effect | inhibition of HIV infection in macrophages (p24 antigen) (HIV-1 (3B); doses from 1 to 50 μM (below 100 μM)): little activity | IC50 (HIV [2]; Human immunodeficiency virus 1, read-out: IC50 50% Reduction in syncytial cell formation MT4 cells, HIV infected MT4 cells, SupT1 target cells): ~4 µM | Therapeutic Index MT4 cells (TC50/IC50) (HIV [2]; MT4 cells, syncytial cell assay): 35 | IC50 ([3]; Human immunodeficiency virus 1, PBMC, 168 h): ~12 µM | IC50 ([3]; PBMC): 19 µM | CC50 at 5 days [8]: 140 µM | CC50 at 5 days [9]: 340 µM | increase in activity (shift in dose response curve) when AZT was added (HIV infected MT4 cells [4]): < 10 fold | synergism when administered concurrently with AZT (reported) (HIV infected MT4 cells [10]): act synergistically | T2 for incorporation into triglycerides and membrane lipids [11]: 1 to 2 min | toxicity in macrophage experiment [12]: toxic | direct cytotoxicity to CEM cells (CEM cells [13]; 40 μM): showed toxicity | toxicity compared with the other analogs (CEM cells [13]; CEM cells, comparison in words): most toxic analog tested in this series | direct cytotoxicity to CEM cells (CEM cells [13]; dose up to 400 μM): toxic

1-myristoyl-2-(12-methoxydodecan-oyl)-sn-3-phosphalidylcholine [AC1]
inhibition of HIV p24 antigen production in MDM (HIV-1 (3B)): completely suppressed | inhibition of HIV infection in macrophages (p24 antigen) (HIV-1 (3B); 100 μM): almost complete inhibition | dose response behaviour in MDM (HIV-1 (3B); listed as L-AC1): dose responsive activity | liposome formation [5]: formed liposomes | activity in direct cytopathic assay (HIV-1; 50 μM): little activity | anti-HIV activity with the active fatty acid anchored in the sn-2 position (HIV-1; FIG. 1, in words): significantly reduced the activity | toxicity compared with the other analogs (CEM cells [7]): significantly less toxic

CCCCCCCCCCCCCC(=O)OC[C@H](COP(=O)(O)OCCN)OC(=O)CCCCCCCCCCCOC [L-PE1, 1-Myristoyl-2-[12-methoxydodecanoyl]-sn-glycero-3-phosphoethanolamine]
IC50 (HIV [1]; Human immunodeficiency virus 1): 6 µM | half-life (in vitro): > 50 h
